Measured values published in PubChem BioAssay AID248 (DTP/NCI, 2004).
Where “and” joins values, the source holds several entries; their conditions need not be identical. Equal values may be shown once. Inconclusive results and toxic doses are left out. No stated cut-off is given here; in the data, active means T/C of 150% or more; inactive means T/C below 125%.

Tested on: L1210 leukemia ip in BDF1 mice, survival T/C
Test: NCI In Vivo Anticancer Drug Screen. Data for tumor model L1210 Leukemia (intraperitoneal) in B6D2F1 (BDF1) mice
Conditions: endpoint: mean survival time, higher = longer survival
Summary of the method: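 Tumor was transplanted into mice, which were then dosed with test compound or vehicle alone. Survival was recorded for each group, and the treated figure was expressed relative to the control figure.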

Measured: T/C

COC(=O)CCC(NC(=O)CCCNC(=O)OCc1ccccc1)C(=O)OC (centres undefined)
inactive: dose: 100.0 mg/kg/injection, schedule: Q01DX001 (ip), vehicle: Klucel (hydroxypropylcellulose) (HPC) 96 % of control | dose: 100.0 mg/kg/injection, schedule: Q01DX001 (ip), vehicle: other 97 % of control | dose: 100.0 mg/kg/injection, schedule: Q01DX009 (ip), vehicle: Klucel (hydroxypropylcellulose) (HPC) 100 % of control | dose: 100.0 mg/kg/injection, schedule: Q04DX003 (ip), vehicle: Klucel (hydroxypropylcellulose) (HPC) 94 % of control | dose: 200.0 mg/kg/injection, schedule: Q01DX001 (ip), vehicle: Klucel (hydroxypropylcellulose) (HPC) 98 % of control | dose: 200.0 mg/kg/injection, schedule: Q01DX001 (ip), vehicle: other 100 % of control | dose: 200.0 mg/kg/injection, schedule: Q01DX009 (ip), vehicle: Klucel (hydroxypropylcellulose) (HPC) 97 % of control | dose: 200.0 mg/kg/injection, schedule: Q04DX003 (ip), vehicle: Klucel (hydroxypropylcellulose) (HPC) 89 % of control | dose: 400.0 mg/kg/injection, schedule: Q01DX001 (ip), vehicle: Klucel (hydroxypropylcellulose) (HPC) 89 % of control | dose: 400.0 mg/kg/injection, schedule: Q01DX001 (ip), vehicle: other 103 % of control | dose: 400.0 mg/kg/injection, schedule: Q01DX009 (ip), vehicle: Klucel (hydroxypropylcellulose) (HPC) 100 % of control | dose: 400.0 mg/kg/injection, schedule: Q04DX003 (ip), vehicle: Klucel (hydroxypropylcellulose) (HPC) 86 % of control

CC(=O)OCC(C)(C)N
inactive: dose: 100.0 mg/kg/injection, schedule: Q04DX002 (ip), vehicle: saline 89 % of control | dose: 200.0 mg/kg/injection, schedule: Q04DX002 (ip), vehicle: saline 110 % of control | dose: 400.0 mg/kg/injection, schedule: Q04DX002 (ip), vehicle: saline 95 % of control

O=C1c2ccccc2C(C2c3ccccc3C(=O)c3ccccc32)c2ccccc21
inactive: dose: 50.0 mg/kg/injection, schedule: Q01DX001 (ip), vehicle: carboxymethylcellulose (CMC) 89 % of control | dose: 100.0 mg/kg/injection, schedule: Q01DX001 (ip), vehicle: carboxymethylcellulose (CMC) 89 % of control | dose: 400.0 mg/kg/injection, schedule: Q01DX001 (ip), vehicle: carboxymethylcellulose (CMC) 86 % of control

CSCCC(NC(=O)c1ccccc1)C(N)=O (centres undefined)
inactive: dose: 100.0 mg/kg/injection, schedule: Q01DX009 (ip), vehicle: saline with Tween-80 90 % of control | dose: 200.0 mg/kg/injection, schedule: Q01DX009 (ip), vehicle: saline with Tween-80 89 % of control

CC1C2CCC(C2)C1N (centres undefined)
inactive: dose: 25.0 mg/kg/injection, schedule: Q01DX009 (ip), vehicle: saline 96 % of control | dose: 25.0 mg/kg/injection, schedule: Q04DX003 (ip), vehicle: saline 94 % of control | dose: 50.0 mg/kg/injection, schedule: Q01DX009 (ip), vehicle: saline 104 % of control | dose: 50.0 mg/kg/injection, schedule: Q04DX003 (ip), vehicle: saline 105 % of control | dose: 100.0 mg/kg/injection, schedule: Q01DX009 (ip), vehicle: saline 98 % of control | dose: 100.0 mg/kg/injection, schedule: Q04DX003 (ip), vehicle: saline 112 % of control and 92 % of control and 93 % of control | dose: 200.0 mg/kg/injection, schedule: Q04DX003 (ip), vehicle: saline 93 % of control

CC(C)(Oc1ccc(Cl)cc1Cl)C(=O)O
inactive: dose: 100.0 mg/kg/injection, schedule: Q01DX009 (ip), vehicle: gum acacia 90 % of control

CCCCNC(C)(C)C(SSSC(c1cccs1)C(C)(C)NCCCC)c1cccs1 (centres undefined)
inactive: dose: 100.0 mg/kg/injection, schedule: Q04DX003 (ip), vehicle: saline sonified 97 % of control | dose: 200.0 mg/kg/injection, schedule: Q04DX003 (ip), vehicle: saline sonified 107 % of control | dose: 400.0 mg/kg/injection, schedule: Q04DX003 (ip), vehicle: saline sonified 100 % of control

Cc1ccc(N(O)C(=O)Nc2ccccc2)cc1
inactive: dose: 50.0 mg/kg/injection, schedule: Q01DX015 (ip), vehicle: methylcellulose (MC) 102 % of control | dose: 100.0 mg/kg/injection, schedule: Q01DX015 (ip), vehicle: methylcellulose (MC) 91 % of control | dose: 200.0 mg/kg/injection, schedule: Q01DX015 (ip), vehicle: methylcellulose (MC) 96 % of control
